# Test results as given in patent EP2886531B1, “Aspartic acid derivatives” (Merck Patent GmbH, priority 2013, dated 2015).
# Key:
# [1] = Prolonged piperidine treatment of VKDGYI peptide resin (aspartimide formation, Asp-Gly motif)
# [2] = Prolonged piperidine treatment of VKDRYI peptide resin (aspartimide formation, Asp-Arg motif); format: physicochemical; settings: for Asu per 10' cycle / Half-life in cycles / D/L-Asu [%] / piperidides [%]: VKDRYI; for D/L-Asu [%] / piperidides [%] / target [%]: 110 Fmoc removal cycles; for target [%]: target peptide VKDRYI
# Procedure: (§1) Automated peptide synthesis, piperidine treatments of the resin samples and final TFA cleavages are performed as described in the protocols of example 4. In addition, to evaluate the advantage of the protecting groups used in this invention in heat accelerated SPPS we treat 50 mg peptide resin samples with a solution of 20% piperidine in DMF at 60°C over 200 minutes. Microwave assisted peptide synthesis conditions are often used to shorten peptide synthesis times and increase coupling reaction and Fmoc deprotection.
# In table 4 the amounts of by-products formed after the prolonged exposure of the peptide resins to piperidine (110 Fmoc removal cycles) are summarized for all side-chain protections used in this invention. Table 4: Results after 110 Fmoc removal cycles using piperidine, target peptide sequence = VKDRYI, the aspartimide (Asu) derived by-products are the aspartimide itself and the sum of piperidides
# [3] = Prolonged DBU treatment of VKDNYI peptide resin (aspartimide formation); format: physicochemical; settings: for D/L-Asu [%] / piperides [%]: DBU/piperidine/DMF (1:19:79), 225 minutes; for target [%]: target peptide VKDNYI, DBU/piperidine/DMF (1:19:79) over 225 minutes, 110 Fmoc removal cycles
# Procedure: (§2) Automated peptide synthesis, piperidine treatments of the resin samples and final TFA cleavages are performed as described in the protocols of example 4. In addition, 50 mg peptide resin samples are treated with a solution of DBU/piperidine/DMF (1:19:79) over 225 minutes to investigate the aspartimide formation at harsher Fmoc deprotection conditions often used for complete Fmoc removals in aggregation prone sequences.
# (§3) The resulting peptide samples are analysied and all relevant impurities identified by UPLC-MS analysis (Xevo Waters Q-TOF-1, lock mass = 556.277 (leu-enkephaline), LC-conditions: CHS 18 1,7 µm (100x2.1 mm) at 40°C; water acetonitrile gradient of 5% to 35 % B over 10 min where buffer A is 0.1 % formic acid in water and buffer B is 0.1 % formic acid in acetonitrile, flow 0.6 ml/min).
# In table 3 the amounts of by-products formed after prolonged DBU treatments are summarized for all side-chain protections used in this invention. […] Since the DBU mediated Fmoc removals are much quicker than the piperidine mediated, this experiment again represents a Fmoc SPPS assembly of an 100mer after introducing the aspartic acid residue using exclusively DBU for Fmoc cleavage. Table 3: Results after 110 Fmoc removal cycles using DBU, target peptide = VKDNYI, the aspartimide (Asu) derived by-products are the aspartimide itself and the sum of piperidides
# [4] = Prolonged piperidine treatment at 60°C of VKDRYI peptide resin (aspartimide formation); format: physicochemical; settings: for D/L-Asu [%] / piperidides [%]: 20% piperidine in DMF at 60°C, 200 minutes; for target [%]: target peptide VKDRYI, 20% piperidine in DMF at 60°C over 200 minutes, 100 Fmoc removal cycles
# Procedure: as §1
# The application of microwave heating to SPPS is accelerating coupling and deprotection reactions leading to shorter cycle times, higher repetitive yields, and ultimately purer peptides. On the other hand, microwave energy can also lead to increased levels of aspartimide by-products. To overcome that drawback we evaluated the advantage of the side-chain protections used in this invention by exposing the peptide resins to Fmoc removal cycles at 60 degrees Celsius.
# In table 5 the amounts of by-products formed after the prolonged exposure of the peptide resins to piperidine at 60 degree Celsius (100 Fmoc removal cycles) are summarized for all side-chain protections used in this invention. […] Table 5: Results after 100 Fmoc removal cycles using piperidine at 60°C, target peptide sequence = VKDRYI, the aspartimide (Asu) derived by-products are the aspartimide itself and the sum of piperidides
# [5] = Prolonged piperidine treatment of VKDNYI peptide resin (aspartimide formation, Asp-Asn motif); format: physicochemical; settings: for D/L-Asu [%] / piperidides [%] / target [%]: 110 Fmoc removal cycles; for target [%]: target peptide VKDNYI
# Procedure: as §2, §3
# In table 2 the amounts of by-products formed after the prolonged exposure of the peptide resins to piperidine (110 Fmoc removal cycles) are summarized for all side-chain protections used in this invention. […] Table 2: Results after 110 Fmoc removal cycles using piperidine, target peptide = VKDNYI, the aspartimide (Asu) derived by products are the aspartimide itself and the sum of piperidides
# [6] = Prolonged treatment of VKDGYI peptide resin with 1 M Oxyma Pure and 20 % piperidine (aspartimide formation); format: physicochemical; settings: for Asu per 10' cycle / Asu [%] / piperidides [%]: Oxyma Pure +; for Asu [%] / piperidides [%] / target [%]: 18 hours; for target [%]: Oxyma Pure +: 1 M Oxyma Pure and 20 % piperidine in dimethylformamide
# Procedure: [drawing 14] 50 mg samples of the corresponding aspartic acid derivatives of example 4 are treated over 18 hours with a solution of 1 M Oxyma Pure and 20 % piperidine in dimethylformamide. The peptides are cleaved off the resin with 95 % TFA and analysed with HPLC as well as MS to identify all aspartimide related products (conditions see example 4). The results are summarized in table 6: Table 6: Results after 110 Fmoc removal cycles using an acidic modifier in the piperidine mediated Fmoc removal cocktails, target peptide = VKDG YI, the aspartimide derived by-products are the aspartimide itself and the sum of piperidides
# [7] = VKDGYI, 20 % piperidine in dimethylformamide
# [8] = VKDGYI, 20 % piperidine in dimethylformamide, 18 hours, aspartimide
# [9] = VKDGYI, 20 % piperidine in dimethylformamide, 18 hours, sum of piperidides
# [10] = VKDGYI, Oxyma Pure -: 20 % piperidine only, 18 hours (as Table 1)
# [11] = target peptide VKDGYI, 20 % piperidine in dimethylformamide over 18 hours, 110 Fmoc removal cycles
# [12] = VKDGYI, 1 M Oxyma Pure in 20 % piperidine
Structure (SMILES),"Asu per 10' cycle [%] [1, 7]","Asu [%] [1, 8]","piperidides [%] [1, 9]","Asu [%] ([1]; VKDGYI, Oxyma Pure -)","Asu per 10' cycle ([1]; VKDGYI, Oxyma Pure -)","piperidides [%] ([1]; VKDGYI, Oxyma Pure -)","target [%] [1, 10]","target [%] [1, 11]",Asu per 10' cycle [2],Half-life in cycles [2],D/L-Asu [%] [2],piperidides [%] [2],target [%] [2],"Asu per 2' cycle ([3]; VKDNYI, DBU)",D/L-Asu [%] ([3]; VKDNYI),piperides [%] ([3]; VKDNYI),target [%] [3],D/L-Asu [%] ([4]; VKDRYI),piperidides [%] ([4]; VKDRYI),"Asu per 10' cycle ([4]; VKDRYI, piperidine at 60°C)",also measured
"CCCC(CCC)(CCC)OC(=O)C[C@H](NC(=O)OCC1c2ccccc2-c2ccccc21)C(=O)O [Php, (2S)-N-((9H-fluoren-9-ylmethyloxy)carbonyl)aspartic acid-4-(4-(n-propyl)hept-4-yl) ester]",0.2%,2.9%,16.5%,2.9%,0.2,16.5%,80.6%,80.6%,0.08,845 cycles,3.2%,5.5%,91.3%,0.4,3.3%,25.7%,71.0%,7.1%,5.1%,0.1,"half-life of the target peptide increased, in respect of Mpe ([1]; VKDGYI, Asp-Gly sequence, relative to Mpe protection): 4 fold; half-life of the target peptide increased, instead of tBu ([1]; VKDGYI, Asp-Gly sequence, relative to tBu protection): more than 10 fold; Half-life in cycles [3]: 192 cycles; Half-life in cycles [4]: 532 cycles; target [%] [4]: 87.8%; Half-life in cycles [5]: 800 cycles; Asu per 10' cycle ([5]; VKDNYI, piperidine): 0.09; D/L-Asu [%] ([5]; VKDNYI, piperidine): 1.0%; piperidides [%] ([5]; VKDNYI, piperidine): 8.2%; target [%] ([5]; piperidine): 90.8%; aspartimide side reaction ([6]; Asp-Gly sequence, Fmoc removal solution of 1 M Oxyma Pure in piperidine/DMF 1:4): nearly inhibits the apartimide side reaction; aspartimide derived by-products per Fmoc removal [6, 12]: 0.05%; half-life [6, 12]: greater than 1500 cycles; Asu per 10' cycle ([6]; VKDGYI): 0.04; Asu [%] ([6]; VKDGYI): 1.3%; piperidides [%] ([6]; VKDGYI): 3.3%; target [%] ([6]; VKDGYI): 95.4%"
"CC(C)(C)OC(=O)C[C@H](NC(=O)OCC1c2ccccc2-c2ccccc21)C(=O)O [tBu, Fmoc-Asp(OtBu)-OH, reference compound]",2.3%,6.4%,85.6%,6.4%,2.3,85.6%,8.0%,8.0%,1.3,55 cycles,16.9%,58.4%,24.7%,5.2,2.6%,97.1%,0.3%,28.7%,41.0%,1.2,"Half-life in 10' cycles [1, 7]: 30 10' cycles; Half-life in cycles ([3]; VKDNYI, DBU, 2' cycles): 13 cycles; Half-life in cycles ([4]; VKDRYI, piperidine at 60°C): 58 cycles; target [%] [4]: 30.3%; Asu per 10' cycle ([5]; VKDNYI, piperidine): 1.6; Half-life in cycles ([5]; VKDNYI, piperidine): 40 cycles; D/L-Asu [%] ([5]; VKDNYI, piperidine): 4.9%; piperidides [%] ([5]; VKDNYI, piperidine): 79.0%; target [%] ([5]; piperidine): 16.1%; Asu per 10' cycle ([6]; VKDGYI): 0.45; Asu [%] ([6]; VKDGYI): 8.8%; piperidides [%] ([6]; VKDGYI): 30.1%; target [%] ([6]; VKDGYI): 61.1%"
